Key:
Plasma [1] = experiment: Drug level in plasma of Sprague-Dawley rat treated with [14C]casopitant mesylate at 60 mg/kg/day, po administered as repeat dose measured after 24 hrs on day 20 by HPLC-MS/MS method relative to [14C]casopitant mesylate radioactivity; type: ADME, organism-based; design: dosed compound name [14C]Casopitant, route oral; settings: in vivo
Plasma [2] = experiment: Drug level in plasma of beagle dog treated with [14C]casopitant mesylate at 40 mg/kg/day, po administered as repeat dose measured after 24 hrs on day 14 by HPLC-MS/MS method relative to [14C]casopitant mesylate radioactivity; type: ADME, organism-based, Canis lupus familiaris; design: dosed compound name [14C]Casopitant, route oral; settings: in vivo
[3] = Drug level in myocardium of beagle dog treated with [14C]casopitant mesylate at 40 mg/kg/day, po administered as repeat dose measured after 24 hrs on day 14 by HPLC-MS/MS method relative to [14C]casopitant mesylate radioactivity; type: ADME, organism-based, Canis lupus familiaris; design: dosed compound name [14C]Casopitant, route oral; settings: in vivo
[4] = Drug level in skeletal muscle of beagle dog treated with [14C]casopitant mesylate at 40 mg/kg/day, po administered as repeat dose measured after 24 hrs on day 14 by HPLC-MS/MS method relative to [14C]casopitant mesylate radioactivity; type: ADME, organism-based, Canis lupus familiaris, Muscle tissue; design: dosed compound name [14C]Casopitant, route oral; settings: in vivo
[5] = Drug level in kidney of beagle dog treated with [14C]casopitant mesylate at 40 mg/kg/day, po administered as repeat dose measured after 24 hrs on day 14 by HPLC-MS/MS method relative to [14C]casopitant mesylate radioactivity; type: ADME, organism-based, Canis lupus familiaris; design: dosed compound name [14C]Casopitant, route oral; settings: in vivo
[6] = Drug level in lung of beagle dog treated with [14C]casopitant mesylate at 40 mg/kg/day, po administered as repeat dose measured after 24 hrs on day 14 by HPLC-MS/MS method relative to [14C]casopitant mesylate radioactivity; type: ADME, organism-based, Canis lupus familiaris; design: dosed compound name [14C]Casopitant, route oral; settings: in vivo
Canis familiaris [7] = experiment: AUC (0 to t) in beagle dog treated with [14C]casopitant mesylate at 40 mg/kg/day, po administered as repeat dose measured after 26 weeks by HPLC-MS/MS method; type: ADME, organism-based, Canis lupus familiaris, Plasma; design: dosed compound name [14C]Casopitant, route oral; settings: in vivo, 4368 h
Canis familiaris [8] = experiment: Cmax in beagle dog treated with [14C]casopitant mesylate at 40 mg/kg/day, po administered as repeat dose measured after 26 weeks by HPLC-MS/MS method; type: ADME, organism-based, Canis lupus familiaris; design: dose 40 mg/kg/day, dosed compound name [14C]Casopitant, route oral; settings: in vivo, 4368 h
Canis familiaris [9] = experiment: Tmax in beagle dog treated with [14C]casopitant mesylate at 40 mg/kg/day, po administered as repeat dose measured after 26 weeks by HPLC-MS/MS method; type: ADME, organism-based, Canis lupus familiaris; design: dosed compound name [14C]Casopitant, route oral; settings: in vivo, 4368 h
[10] = Drug level in myocardium of beagle dog treated with [14C]casopitant mesylate at 40 mg/kg/day, po administered as repeat dose measured after 6 weeks by HPLC-MS/MS method; type: ADME, organism-based, Canis lupus familiaris; design: dosed compound name [14C]Casopitant, route oral; settings: in vivo, 1008 h
[11] = Drug level in myocardium of beagle dog treated with [14C]casopitant mesylate at 40 mg/kg/day, po administered as repeat dose measured after 20 weeks by HPLC-MS/MS method; type: ADME, organism-based, Canis lupus familiaris; design: dosed compound name [14C]Casopitant, route oral; settings: in vivo, 3360 h
[12] = Drug level in myocardium of beagle dog treated with [14C]casopitant mesylate at 40 mg/kg/day, po administered as repeat dose measured after 13 weeks by HPLC-MS/MS method; type: ADME, organism-based, Canis lupus familiaris; design: dosed compound name [14C]Casopitant, route oral; settings: in vivo, 2184 h
[13] = Drug level in myocardium of beagle dog treated with [14C]casopitant mesylate at 40 mg/kg/day, po administered as repeat dose measured after 26 weeks by HPLC-MS/MS method; type: ADME, organism-based, Canis lupus familiaris; design: dosed compound name [14C]Casopitant, route oral; settings: in vivo, 4368 h
[14] = Drug level in myocardium of beagle dog treated with [14C]casopitant mesylate at 40 mg/kg/day, po administered as repeat dose measured after 22 weeks post dosing withdrawal by HPLC-MS/MS method; type: ADME, organism-based, Canis lupus familiaris; design: dosed compound name [14C]Casopitant, route oral; settings: in vivo, 3696 h
Plasma [15] = experiment: Drug level in beagle dog plasma treated with [14C]casopitant mesylate at 40 mg/kg/day, po administered as repeat dose measured during 24 hrs dosing interval on week 26 by HPLC-MS/MS method; type: ADME, organism-based, Canis lupus familiaris; design: dosed compound name [14C]Casopitant, route oral; settings: in vivo

Row | Structure (SMILES) | Compound recovery (Plasma [1]) | Compound recovery (Plasma [2]) | Compound recovery [3] | Compound recovery [4] | Compound recovery [5] | Compound recovery [6] | AUCt (Canis familiaris [7]) [ng·h/mL] | Cmax (Canis familiaris [8]) [ng/mL] | Tmax (Canis familiaris [9]) [h] | Compound recovery [10] [ng/g] | Compound recovery [11] [ng/g] | Compound recovery [12] [ng/g] | Compound recovery [13] [ng/g] | Drug concentration in myocardium [14] [ng/g] | Compound recovery (Plasma [2]; BLD = below limit of detection) | Compound recovery (Plasma [15])
1 | CC(=O)N1CCN([C@H]2CCN(C(=O)N(C)[C@H](C)c3cc(C(F)(F)F)cc(C(F)(F)F)c3)[C@@H](c3ccc(F)cc3C)C2)CC1O (some centres not stated) | 0.3% | 4.8% | 2.1% | 4.2% | 2.9% | 1.9% | 61603 | 4357 | 4 | 2041 | 6554 | 4516 | 3686 | < 50 |  | 
2 | Cc1cc(F)ccc1[C@H]1C[C@@H](NCCN)CCN1C(=O)N(C)[C@H](C)c1cc(C(F)(F)F)cc(C(F)(F)F)c1 | Metabolite not detected |  | 3.7% | 2.4% | 4.8% | 2.3% | 1442 | 65.5 | 24 | 39180 | 85193 | 62780 | 114014 | 31732 | BLD | 
3 | C[C@@H](NC(N)=O)c1cc(C(F)(F)F)cc(C(F)(F)F)c1 | 4.6% | Metabolite not detected | Metabolite not detected | Metabolite not detected | Metabolite not detected | Metabolite not detected |  |  |  |  |  |  |  |  |  | 
4 | Cc1cc(F)ccc1[C@H]1C[C@@H](N2CCNCC2)CCN1C(=O)N(C)[C@H](C)c1cc(C(F)(F)F)cc(C(F)(F)F)c1 | 1.5% | 0.8% | 3.4% | 7.6% | 7% | 11.9% | 1803 | 82 | 8 | 3623 | 14215 | 7867 | 11346 | < 50 |  | metabolite_detected
5 | CC(=O)NCCN[C@H]1CCN(C(=O)N(C)[C@H](C)c2cc(C(F)(F)F)cc(C(F)(F)F)c2)[C@@H](c2ccc(F)cc2C)C1 |  |  |  |  |  |  | 3040 | 189 | 1 | 2379 | 9399 | 5386 | 6644 | < 50 |  | metabolite_detected
6 | Cc1cc(F)ccc1[C@H]1C[C@@H](N)CCN1C(=O)N(C)[C@H](C)c1cc(C(F)(F)F)cc(C(F)(F)F)c1 |  |  |  |  |  |  | 22858 | 1044 | 24 | 29401 | 52699 | 39073 | 58640 | 408 |  | metabolite_detected
7 | Cc1cc(F)ccc1[C@H]1C[C@@H](N2CCNC(=O)C2)CCN1C(=O)N(C)[C@H](C)c1cc(C(F)(F)F)cc(C(F)(F)F)c1 | 1.2% | 4.1% | 1.6% | 3.5% | 2.2% | 1.2% | 21248 | 1013 | 8 | 1517 | 3286 | 2010 | 2416 | < 50 |  | metabolite_detected
8 | CC(=O)N1CCN([C@H]2CCN(C(=O)N(C)[C@H](C)c3cc(C(F)(F)F)cc(C(F)(F)F)c3)[C@@H](c3ccc(F)cc3C)C2)CC1=O | 0.2% | 0.9% | 0.5% | 1.3% | 1.1% | 0.6% |  |  |  |  |  |  |  |  |  | 
9 | CC(=O)N1CCN([C@H]2CCN(C(=O)N(C)[C@H](C)c3cc(C(F)(F)F)cc(C(F)(F)F)c3)[C@@H](c3ccc(F)cc3C)C2)CC1.CS(=O)(=O)O [CASOPITANT MESYLATE] | 1.5% | 1.9% | 3.7% | 2.4% | 7% | 11.9% | 53599 | 7167 | 1 | 467 | 2098 | 1991 | 889 | < 50 |  | 
